Laboratory results reported in patent US10093678B2, “Azaspiro derivatives as TRPM8 antagonists” (RaQualia Pharma Inc., priority 2014, dated 2018).

Target: T1, human TRPM8 (Homo sapiens, UniProt Q7Z2W7)
T1 construct: expressed in transfected cells; host or cells: HEK293
Assay: Menthol-induced Ca2+ influx in HEK293 cells stably expressing human TRPM8
Assay type: cell-based
Settings: 30 microM menthol-induced Ca2+ influx, read-out: IC50 against TRPM8
How it was run: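 IC50 values were fitted from 11-point dose-response data averaged over duplicate wells. Compound was added for 5 min to Fluo4-loaded HEK293 cells carrying stable human TRPM8, in HBSS/HEPES pH 7.4 with probenecid. Intracellular Ca2+ change after 30 microM menthol addition was then imaged on FDSS.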

T1 sequence (Q7Z2W7 whole entry): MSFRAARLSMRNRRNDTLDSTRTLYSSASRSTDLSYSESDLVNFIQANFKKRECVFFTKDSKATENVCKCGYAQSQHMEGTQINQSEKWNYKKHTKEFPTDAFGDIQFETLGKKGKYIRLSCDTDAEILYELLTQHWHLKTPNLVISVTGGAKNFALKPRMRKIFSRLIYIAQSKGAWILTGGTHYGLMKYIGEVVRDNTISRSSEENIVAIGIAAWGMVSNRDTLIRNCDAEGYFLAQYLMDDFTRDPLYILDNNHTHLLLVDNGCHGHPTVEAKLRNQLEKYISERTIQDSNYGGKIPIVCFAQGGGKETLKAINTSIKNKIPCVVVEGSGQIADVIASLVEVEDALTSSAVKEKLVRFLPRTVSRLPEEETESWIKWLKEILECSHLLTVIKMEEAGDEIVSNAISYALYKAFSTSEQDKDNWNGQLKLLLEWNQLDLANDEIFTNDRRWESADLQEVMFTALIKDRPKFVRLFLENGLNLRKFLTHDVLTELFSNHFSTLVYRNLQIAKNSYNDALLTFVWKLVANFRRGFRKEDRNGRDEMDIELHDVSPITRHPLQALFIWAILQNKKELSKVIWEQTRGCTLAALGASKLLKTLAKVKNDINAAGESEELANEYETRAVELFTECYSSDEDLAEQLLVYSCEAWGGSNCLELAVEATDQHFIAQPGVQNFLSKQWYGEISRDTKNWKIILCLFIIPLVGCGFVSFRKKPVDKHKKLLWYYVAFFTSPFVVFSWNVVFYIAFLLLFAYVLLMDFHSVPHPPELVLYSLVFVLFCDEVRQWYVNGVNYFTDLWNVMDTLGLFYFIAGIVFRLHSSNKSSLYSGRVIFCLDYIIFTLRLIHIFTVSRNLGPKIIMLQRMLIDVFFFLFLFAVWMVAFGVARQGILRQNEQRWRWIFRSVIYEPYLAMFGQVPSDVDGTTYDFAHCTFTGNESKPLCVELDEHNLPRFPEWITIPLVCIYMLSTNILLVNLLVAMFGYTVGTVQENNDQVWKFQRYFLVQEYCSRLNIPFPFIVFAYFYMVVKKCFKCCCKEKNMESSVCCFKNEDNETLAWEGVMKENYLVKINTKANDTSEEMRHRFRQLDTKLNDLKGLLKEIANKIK

SMILES	IC50 [nM]
Cc1nc(C(=O)CN2C(=O)NC3(CCC(F)(F)CC3)C2=O)sc1-c1cncc(C#N)c1 [Example 18-13]	< 500
Cc1cccc(N(C)c2ccc(C(=O)CN3C(=O)NC4(CCCCC4)C3=O)cn2)c1 [Example 19-1, 3-(2-(6-(methyl(m-tolyl)amino)pyridin-3-yl)-2-oxoethyl)-1,3-diazaspiro[4.5]decane-2,4-dione]	< 100
CN(c1ccccn1)c1ccc(C(=O)CN2C(=O)NC3(CCCCC3)C2=O)cn1 [Example 19-2]	< 100
CCN(c1ccccc1)c1ccc(C(=O)CN2C(=O)NC3(CCCCC3)C2=O)cn1 [Example 19-3]	< 100
CN(c1cccnc1)c1ccc(C(=O)CN2C(=O)NC3(CCCCC3)C2=O)cn1 [Example 19-4]	< 100
CN(c1ccccc1)c1ccc(C(=O)CN2C(=O)NC3(CCCCC3)C2=O)cn1 [Example 19-5]	< 100
CN(c1ccccn1)c1ccc(C(=O)CN2C(=O)NC3(CCC(F)(F)CC3)C2=O)cn1 [Example 19-6]	< 100
O=C(CN1C(=O)NC2(CCC(F)(F)CC2)C1=O)c1ccc(N2CCOc3ccccc32)nc1 [Example 19-7]	< 100
O=C(CN1C(=O)NC2(CCC(F)(F)CC2)C1=O)c1ccc(-n2ccc3ccncc32)nc1 [Example 19-8]	< 100
CN(c1ccccc1)c1ccc(C(=O)CN2C(=O)NC3(CCC(F)(F)CC3)C2=O)cn1 [Example 19-9]	< 100
O=C(CN1C(=O)NC2(CCC(F)(F)CC2)C1=O)c1ccc(-n2ccc3cccnc32)nc1 [Example 19-10]	< 100
O=C(CN1C(=O)NC2(CCC(F)(F)CC2)C1=O)c1ccc(N2CCCc3ccccc32)nc1 [Example 19-11]	< 100
Cc1cc2ccccc2n1-c1ccc(C(=O)CN2C(=O)NC3(CCC(F)(F)CC3)C2=O)cn1 [Example 19-12]	< 100
O=C(CN1C(=O)NC2(CCC(F)(F)CC2)C1=O)c1ccc(N2C(=O)COc3ccccc32)nc1 [Example 19-13]	< 100
O=C(CN1C(=O)NC2(CCC(F)(F)CC2)C1=O)c1ccc(-n2c(=O)oc3ccccc32)nc1 [Example 19-14]	< 10
CN(c1cccc(C(F)(F)F)c1)c1ccc(C(=O)CN2C(=O)NC3(CCC(F)(F)CC3)C2=O)cn1 [Example 19-15]	< 500
CN(c1ccc(C(=O)CN2C(=O)NC3(CCC(F)(F)CC3)C2=O)cc1)c1ccccn1 [Example 19-16]	< 100
O=C(CN1C(=O)NC2(CCC(F)(F)CC2)C1=O)c1ccc(-n2ccc3cccnc32)cc1 [Example 19-17]	< 100
O=C(CN1C(=O)NC2(CCC(F)(F)CC2)C1=O)c1ccc(-n2ccc3ccccc32)cc1 [Example 19-18]	< 100
Cc1cc2ccccc2n1-c1ccc(C(=O)CN2C(=O)NC3(CCC(F)(F)CC3)C2=O)cc1 [Example 19-19]	< 500
O=C(CN1C(=O)NC2(CCC(F)(F)CC2)C1=O)c1ccc(N2CCOc3ccccc32)cc1 [Example 19-20]	< 100
O=C(CN1C(=O)NC2(CCC(F)(F)CC2)C1=O)c1ccc(N2C(=O)COc3ccccc32)cc1 [Example 19-21]	< 100

SMILES	IC50 [nM]
O=C(CN1C(=O)NC2(CCC(F)(F)CC2)C1=O)c1ccc(-n2c(=O)[nH]c3ccccc32)cc1 [Example 19-22]	< 100
Cn1c(=O)n(-c2ccc(C(=O)CN3C(=O)NC4(CCC(F)(F)CC4)C3=O)cc2)c2ccccc21 [Example 19-23]	< 100
O=C(CN1C(=O)NC2(CCC(F)(F)CC2)C1=O)c1cnc(-n2cnc3ccccc32)cn1 [Example 19-24]	< 100
O=C(CN1C(=O)NC2(CCC(F)(F)CC2)C1=O)c1cnc(N2C(=O)COc3ccccc32)cn1 [Example 19-25]	< 100
O=C(CN1C(=O)NC2(CCC(F)(F)CC2)C1=O)c1ccc(N2C(=O)Cc3ccccc32)cc1 [Example 19-26]	< 100
O=C(CN1C(=O)NC2(CCC(F)(F)CC2)C1=O)c1ccc(N2C(=O)CCc3ccccc32)cc1 [Example 19-27]	< 500
O=C(CN1C(=O)NC2(CCC(F)(F)CC2)C1=O)c1ccc(-n2c(=O)oc3ccccc32)cc1 [Example 19-30]	< 10
Cc1nc2ccccc2n1-c1cnc(C(=O)CN2C(=O)NC3(CCC(F)(F)CC3)C2=O)cn1 [Example 19-33]	< 10
O=C(CN1C(=O)NC2(CCC(F)(F)CC2)C1=O)c1ccc(-n2cnc3cncnc32)cc1 [Example 19-34]	< 500
O=C(CN1C(=O)NC2(CCC(F)(F)CC2)C1=O)c1ccc(-n2cnc3ncncc32)cc1 [Example 19-35]	< 500
O=C(CN1C(=O)NC2(CCC(F)(F)CC2)C1=O)c1ccc(-n2cnc3nccnc32)cc1 [Example 19-37]	< 100
Cc1nc2nccnc2n1-c1ccc(C(=O)CN2C(=O)NC3(CCC(F)(F)CC3)C2=O)cc1 [Example 19-39]	< 500
O=C(CN1C(=O)NC2(CCCCC2)C1=O)c1ccc(Oc2cccc(Cl)c2)nc1 [Example 20-1, 3-(2-(6-(3-chlorophenoxy)pyridin-3-yl)-2-oxoethyl)-1,3-diazaspiro[4.5]decane-2,4-dione]	< 100
O=C(CN1C(=O)NC2(CCCCC2)C1=O)c1ccc(Oc2cccnc2)nc1 [Example 20-2]	< 500
Cc1cccc(Oc2ccc(C(=O)CN3C(=O)NC4(CCCCC4)C3=O)cn2)c1 [Example 20-3]	< 500
O=C(CN1C(=O)NC2(CCCCC2)C1=O)c1ccc(OCCNc2ccccc2)nc1 [Example 20-4]	< 500
O=C(CN1C(=O)NC2(CCCCC2)C1=O)c1ccc(Oc2ccccc2Cl)nc1 [Example 20-5]	< 500
O=C(CN1C(=O)NC2(CCC(F)(F)CC2)C1=O)c1ccc(Oc2ccccn2)nc1 [Example 20-6]	< 100
N#Cc1cccc(Oc2ccc(C(=O)CN3C(=O)NC4(CCC(F)(F)CC4)C3=O)cn2)c1 [Example 20-7]	< 100
O=C(CN1C(=O)NC2(CCC(F)(F)CC2)C1=O)c1ccc(Oc2cccc(Cl)c2)nc1 [Example 20-8]	< 100
O=C(CN1C(=O)NC2(CCC(F)(F)CC2)C1=O)c1ccc(Sc2ccccc2)nc1 [Example 20-9]	< 500
N#Cc1cccnc1Oc1ccc(C(=O)CN2C(=O)NC3(CCC(F)(F)CC3)C2=O)cc1 [Example 21-1, 2-(4-(2-(8,8-difluoro-2,4-dioxo-1,3-diazaspiro[4.5]decan-3-yl)acetyl)phenoxy)nicotinonitrile]	< 100

SMILES	IC50 [nM]
O=C(CN1C(=O)NC2(CCC(F)(F)CC2)C1=O)c1ccc(Oc2ncccc2Cl)cc1 [Example 21-2, 3-(2-(4-((3-chloropyridin-2-yl)oxy)phenyl)-2-oxoethyl)-8,8-difluoro-1,3-diazaspiro[4.5]decane-2,4-dione]	< 100
Cc1cccnc1Oc1ccc(C(=O)CN2C(=O)NC3(CCC(F)(F)CC3)C2=O)cc1 [Example 21-3]	< 500
Cc1ccnc(Oc2ccc(C(=O)CN3C(=O)NC4(CCC(F)(F)CC4)C3=O)cc2)c1 [Example 21-4]	< 500
N#Cc1cccc(Oc2ccc(C(=O)CN3C(=O)NC4(CCC(F)(F)CC4)C3=O)cc2)n1 [Example 21-5]	< 100
Cc1cccc(Oc2ccc(C(=O)CN3C(=O)NC4(CCC(F)(F)CC4)C3=O)cc2)n1 [Example 21-6]	< 500
Cc1ccnc(Oc2ccc(C(=O)CN3C(=O)NC4(CCC(F)(F)CC4)C3=O)cc2)n1 [Example 21-7]	< 500
N#Cc1nccnc1Oc1ccc(C(=O)CN2C(=O)NC3(CCC(F)(F)CC3)C2=O)cc1 [Example 21-8]	< 100
Cc1ccnnc1Oc1ccc(C(=O)CN2C(=O)NC3(CCC(F)(F)CC3)C2=O)cc1 [Example 21-11, 8,8-difluoro-3-(2-(4-((4-methylpyridazin-3-yl)oxy)phenyl)-2-oxoethyl)-1,3-diazaspiro[4.5]decane-2,4-dione]	< 500
N#Cc1ccnnc1Oc1ccc(C(=O)CN2C(=O)NC3(CCC(F)(F)CC3)C2=O)cc1 [Example 21-12, 3-(4-(2-(8,8-difluoro-2,4-dioxo-1,3-diazaspiro[4.5]decan-3-yl)acetyl)phenoxy)pyridazine-4-carbonitrile]	< 100
O=C(CN1C(=O)NC2(CCC(F)(F)CC2)C1=O)c1ccc(Oc2nccs2)cc1 [Example 21-13, 8,8-difluoro-3-(2-oxo-2-(4-(thiazol-2-yloxy)phenyl)ethyl)-1,3-diazaspiro[4.5]decane-2,4-dione]	< 100
O=C(CN1C(=O)NC2(CCC(F)(F)CC2)C1=O)c1ccc(Oc2cccnc2)cc1 [Example 21-14, 8,8-difluoro-3-(2-oxo-2-(4-(pyridin-3-yloxy)phenyl)ethyl)-1,3-diazaspiro[4.5]decane-2,4-dione]	< 100
O=C(CN1C(=O)NC2(CCC(F)(F)CC2)C1=O)c1ccc(Oc2cncnc2)cc1 [Example 21-15]	< 500
O=C(CN1C(=O)NC2(CCC(F)(F)CC2)C1=O)c1ccc(Oc2cccnc2)cc1F [Example 21-16]	< 500
O=C(CN1C(=O)NC2(CCC(F)(F)CC2)C1=O)c1ccc(Oc2cccnc2)c(F)c1 [Example 21-17]	< 100
O=C(CN1CC2(CCC(F)(F)CC2)OC1=O)c1ccc(-n2cnc3cccnc32)cc1 [Example 22-1]	< 100
Cc1nc2cccnc2n1-c1ccc(C(=O)CN2CC3(CCC(F)(F)CC3)OC2=O)cc1 [Example 22-2]	< 500
Cc1nc2ccccc2n1-c1ccc(C(=O)CN2CC3(CCC(F)(F)CC3)OC2=O)cc1 [Example 22-3]	< 100
O=C(CN1CC2(CCC(F)(F)CC2)OC1=O)c1ccc(-n2cnc3ccccc32)cc1 [Example 22-4]	< 100
Cc1ccc2nc(C)n(-c3ccc(C(=O)CN4CC5(CCC(F)(F)CC5)OC4=O)cc3)c2n1 [Example 22-6]	< 500
O=C(CN1C(=O)NC2(CCC(F)(F)CC2)C1=O)c1ccc(-n2c(=O)[nH]c3cccnc32)cc1 [Example 23-1, 8,8-difluoro-3-(2-oxo-2-(4-(2-oxo-1H-imidazo[4,5-b]pyridin-3(2H)-yl)phenyl)ethyl)-1,3-diazaspiro[4.5]decane-2,4-dione]	< 100
